Test results: US7939639B2, “Functional role of adrenomedullin (AM) and the gene related product (PAMP) in human pathology and physiology” (The United States of America as represented by the …, priority 1995, dated 2011)
Entries after “also recorded” stand apart in the source; their conditions may differ.

Experiments:
[1] = test system: RINm, N289, TR4, CRL 2057, CRL 1777, CRL 2055; assay: Insulin secretion of insulin-producing cell lines; format: cell-based; details: six insulin-producing cell lines
Text: A similar mechanism has been described for amylin (R. A. Pittner et al., J. Cell. Biochem. 55S, 19 (1994)).

AM receptor = assay: cAMP assay (RIA), MCF-7; format: cell-based, human
Protocol: k. cAMP Assays: Cyclic AMP was assayed by RIA using a kit obtained from New England Nuclear (Boston, Mass.). […] The supernatants were tested for cAMP using the RIA kit following the manufacturer's instructions.

rat isolated islets = assay: Insulin release from rat isolated islets (RIA); format: cell-based
Protocol: Dose-dependent increase of intracellular cAMP in the islets following addition of AM. Islets from six rats were isolated following well-established protocols (Gray, et al., Diabetes 33, 1055 (1984)). Assays were performed in 24-well plates (90 islets per well). After a 45 min incubation in […] medium containing 5.6 mM glucose, a second incubation in RPMI containing 20.6 mM glucose and the proper concentration of AM and/or the antibody was performed. Supernatants from both incubations were tested by radioimmunoassay (RIA) for insulin (Amersham, Arlington Heights, Ill.). The ratio between the insulin concentration found in the high glucose supernatant and the insulin measured in the low glucose solution is represented in ordinates. After collecting the medium, the islets from the same experiments were saved for analysis of cAMP contents (Korman, et al., Cancer Res. 46, 1214 (1986)). Islets were extracted in 50% ethanol and centrifuged, and the supernatants were tested for cAMP using a RIA kit (New England Nuclear, Boston, Mass.) following manufacturer's instructions. The experiments were repeated three times and a representative example shown. Data are means±standard deviations of two wells.

C. albicans [2] = assay: Germination assay, C. albicans; format: cell-based, Candida albicans
Protocol: Data were compiled from 11 experiments. Germination was determined by incubating colonies of C. albicans that were harvested from an overnight growth on SDA and suspended on RPMI-1640 containing concentrations of AM from 8 to 85 μM. Organisms were incubated at 37° C. and germination was measured at 2 h and 4 h by reading 100 to 200 organisms per concentration per time point in each experiment. Percent germination was assessed as the proportion of blastoconidia of C. albicans bearing the characteristic parallel-walled tubular element to the total number of blastoconidia.

MCF-7 = assay: Soft agar clonal growth assay, MCF-7; format: cell-based, human; details: exogenous AM
E. coli = assay: Microdilutional timed kill assay, E. coli; format: cell-based, Escherichia coli
Protocol: (§1) Inhibition of growth of E. coli was assessed in a microdilutional timed kill assay. (See FIG. 22) Bacteria and Candida albicans were grown overnight on trypticase soy agar (TSA) and Sobouraud dextrose agar (SDA) plates, respectively, were suspended into RPMI-1640 medium (Bio-Whittaker) and adjusted to a final concentration of 8×10^3 cfu/ml in […] in plastic microdilution trays. AM-related peptides, magainins, and albumin were added in equimolar concentrations ranging from 8 μM to 300 μM. Plates were incubated at 37° C. with gentle agitation over 24 hours. At 6 hr and 24 hr time points, 10 to […] aliquots from each well were quantitatively cultured by serial 100-fold dilutions onto TSA and SDA plates.

C. albicans [3] = assay: Micro-/macrodilutional assay, C. albicans; format: cell-based, Candida albicans
Protocol: as §1, with “AM-related peptides, magainins, and albumin were added in equimolar concentrations ranging from 8 μM to 300 μM.” left out
Data were compiled from six experiments. Macrodilution assays were performed in 12×75 mm borosilicate glass tubes. Organisms were grown and harvested, as described in Roilides, E., et al., J Infect Dis. 163:579 (1991), and adjusted to a final inoculum concentration of 8×10^3 cfu/ml in 400 μl. […] Tubes were incubated at 37° C. with gentle agitation over 24 hours. At 6 and 24 hour time points, 100 μl aliquots from each tube were quantitatively cultured by serial 100-fold dilutions onto TSA and SDA plates.

## CC[C@H](C)[C@H](NC(=O)[C@H](CCC(N)=O)NC(=O)[C@H](Cc1c[nH]cn1)NC(=O)[C@H](C)NC(=O)[C@H](CC(C)C)NC(=O)[C@H](CCCCN)NC(=O)[C@H](CCC(N)=O)NC(=O)[C@@H](NC(=O)[C@@H](NC(=O)[C@@H]1CSSC[C@H](NC(=O)CNC(=O)[C@H](Cc2ccccc2)NC(=O)[C@H](CO)NC(=O)[C@H](CCCNC(=N)N)NC(=O)[C@H](CC(C)C)NC(=O)CNC(=O)[C@H](CCC(N)=O)NC(=O)[C@H](Cc2ccccc2)NC(=O)[C@H](CC(N)=O)NC(=O)[C@H](CC(N)=O)NC(=O)[C@H](CCSC)NC(=O)[C@H](CO)NC(=O)[C@H](CCC(N)=O)NC(=O)[C@H](CCCNC(=N)N)NC(=O)[C@@H](N)Cc2ccc(O)cc2)C(=O)N[C@@H](CCCNC(=N)N)C(=O)N[C@@H](Cc2ccccc2)C(=O)NCC(=O)N[C@@H]([C@@H](C)O)C(=O)N1)[C@@H](C)O)C(C)C)C(=O)N[C@@H](Cc1ccc(O)cc1)C(=O)N[C@@H](CCC(N)=O)C(=O)N[C@@H](Cc1ccccc1)C(=O)N[C@H](C(=O)N[C@@H](CC(=O)O)C(=O)N[C@@H](CCCCN)C(=O)N[C@@H](CC(=O)O)C(=O)N[C@@H](CCCCN)C(=O)N[C@@H](CC(=O)O)C(=O)N[C@@H](CC(N)=O)C(=O)N[C@H](C(=O)N[C@@H](C)C(=O)N1CCC[C@H]1C(=O)N[C@@H](CCCNC(=N)N)C(=O)N[C@@H](CO)C(=O)N[C@@H](CCCCN)C(=O)N[C@H](C(=O)N[C@@H](CO)C(=O)N1CCC[C@H]1C(=O)N[C@@H](CCC(N)=O)C(=O)NCC(=O)N[C@@H](Cc1ccc(O)cc1)C(N)=O)[C@@H](C)CC)C(C)C)[C@@H](C)O [AM]
[1]
  change in insulin secretion rate: no change in insulin secretion rate; also recorded: not directly affected
AM receptor; MCF-7
  effect on cAMP: activated; also recorded: rapid increase in cellular cAMP
AM receptor; relative to normal control
  maximum elevation of cellular cAMP: three times that of the normal control
Rat isolated islets; AM concentration of 1 μM, freshly isolated islets
  inhibition of insulin secretion: 78%
Rat isolated islets; isolated islets
  effect of AM on insulin secretion: inhibits insulin secretion in a dose-dependent manner; also recorded: dose-dependent reduction of insulin secretion; also recorded: reduces insulin secretion
C. albicans [2]; 2 hours incubation
  suppression of germination of C. albicans, 2 hours: non-significant trend in the suppression of germination; also recorded: not significant
C. albicans [2]; increasing concentrations of AM (8 to 85 μM), 4 hours incubation
  inhibition of germination of C. albicans, 4 hours: significant inhibition of germination
MCF-7
  clonal growth in soft agar: elevated clonal growth
E. coli; after 6 hours of incubation
  activity against E. coli: activity
E. coli; microdilution, 6 hours, FIG. 22
  growth inhibitory activity against E. coli, comparative: higher growth inhibitory activity than albumin
C. albicans [3]
  antimicrobial effect against C. albicans: 73%±8.1
C. albicans [3]; after 6 hours of incubation
  activity against C. albicans: activity
Rat mast cells
  EC50: 7.9 ± 3.9 µM
